From ChEMBL document CHEMBL1133204, “Synthesis and biological activities of an alpha-methyl and a beta-methyl carbapenem and the corresponding unsubstituted compound” (Bioorg Med Chem Lett, 2000)

How the values were obtained:
[1] = Half life of hydrolysis of compound at pH 7.4, 37 degree C; assay type: ADME; details: buffer
Beta-lactamase = Beta-lactamase (Enterobacter cloacae, UniProt P05364); test: Beta-Lactamase inhibition activity after 15 min of pre-incubation with the enzyme isolated from Enterobacter cloacae
Sequence of Beta-lactamase (P05364 whole entry): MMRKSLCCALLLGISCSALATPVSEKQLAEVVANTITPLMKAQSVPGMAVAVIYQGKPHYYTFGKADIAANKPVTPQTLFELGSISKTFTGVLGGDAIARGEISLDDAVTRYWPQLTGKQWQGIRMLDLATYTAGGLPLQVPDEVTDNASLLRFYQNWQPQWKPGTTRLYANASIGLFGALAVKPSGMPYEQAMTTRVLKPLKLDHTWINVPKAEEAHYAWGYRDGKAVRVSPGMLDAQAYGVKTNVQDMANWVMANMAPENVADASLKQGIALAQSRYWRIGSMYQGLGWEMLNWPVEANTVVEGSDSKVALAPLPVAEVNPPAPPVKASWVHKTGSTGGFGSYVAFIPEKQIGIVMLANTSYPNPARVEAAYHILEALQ

Beta-lactamase TEM = Beta-lactamase TEM (Escherichia coli, UniProt P62593); test: Beta-Lactamase inhibition activity after 15 min of pre-incubation with the enzyme isolated from Escherichia coli 205 TEM
Sequence of Beta-lactamase TEM (P62593 whole entry): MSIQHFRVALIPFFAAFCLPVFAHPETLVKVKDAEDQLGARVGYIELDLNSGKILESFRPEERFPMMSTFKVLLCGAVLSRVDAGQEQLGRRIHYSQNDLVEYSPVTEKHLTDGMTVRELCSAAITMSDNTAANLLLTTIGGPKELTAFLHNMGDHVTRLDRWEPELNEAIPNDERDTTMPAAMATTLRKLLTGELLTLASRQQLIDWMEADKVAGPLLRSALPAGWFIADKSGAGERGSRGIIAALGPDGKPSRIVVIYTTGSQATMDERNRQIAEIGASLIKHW

Enterococcus sp. = test: Minimum inhibitory concentration against Enterobacter coccus in DIFCO nutrient agar after 18 hr incubation period at 37 degree C; assay type: functional
Escherichia coli [2] = test: Minimum inhibitory concentration against Escherichia coli 1103 in DIFCO nutrient agar after 18 hr incubation period at 37 degree C; assay type: functional
Escherichia coli [3] = test: Minimum inhibitory concentration against Escherichia coli 205 TEM in DIFCO nutrient agar after 18 hr incubation period at 37 degree C; assay type: functional
Enterobacter cloacae = test: Minimum inhibitory concentration against Enterobacter cloacae in DIFCO nutrient agar after 18 h incubation period at 37 degree C; assay type: functional
Pseudomonas aeruginosa [4] = test: Minimum inhibitory concentration against Pseudomonas aeruginosa in DIFCO nutrient agar after 18 hr incubation period at 37 degree C; assay type: functional
Pseudomonas aeruginosa [5] = test: Minimum inhibitory concentration against Pseudomonas aeruginosa. res in DIFCO nutrient agar after 18 hr incubation period at 37 degree C; assay type: functional
Staphylococcus aureus [6] = test: Minimum inhibitory concentration against Staphylococcus aureus 1104 in DIFCO nutrient agar after 18 hr incubation period at 37 degree C; assay type: functional
Staphylococcus aureus [7] = test: Minimum inhibitory concentration against Staphylococcus aureus res in DIFCO nutrient agar after 18 hr incubation period at 37 degree C; assay type: functional
Staphylococcus aureus [8] = test: Minimum inhibitory concentration against Staph 25768 in DIFCO nutrient agar after 18 hr incubation period at 37 degree C; assay type: functional
[9] = Minimum inhibitory concentration against S. Innsbruck in DIFCO nutrient agar after 18 h incubation period at 37 degree C
Staphylococcus aureus [10] = test: Minimum inhibitory concentration against Staphylococcus aureus in DIFCO nutrient agar after 18 hr incubation period at 37 degree C; assay type: functional

| SMILES | half-life [1] | IC50 (Beta-lactamase) | IC50 (Beta-lactamase TEM; read-out: IC50) | MIC (Enterococcus sp.) | MIC (Escherichia coli [2]) | MIC (Escherichia coli [3]) | MIC (Enterobacter cloacae) | MIC (Pseudomonas aeruginosa [4]) | MIC (Pseudomonas aeruginosa [5]) | MIC (Staphylococcus aureus [6]) | MIC (Staphylococcus aureus [7]) | MIC (Staphylococcus aureus [8]) | MIC [9] | MIC (Staphylococcus aureus [10]) | IC50 (Beta-lactamase TEM) |
| --- | --- | --- | --- | --- | --- | --- | --- | --- | --- | --- | --- | --- | --- | --- | --- |
| COC1=C(C(=O)[O-])N2C(=O)[C@H]([C@@H](C)O)C2[C@H]1C.[K+] (some centres undefined) | 72 h | 2100 nM | 130 nM | > 50 µg/mL | 1 µg/mL | 0.5 µg/mL | 5 µg/mL | > 50 µg/mL | > 50 µg/mL | 25 µg/mL | 25 µg/mL | > 50 µg/mL | > 50 µg/mL | – | – |
| COC1=C(C(=O)[O-])N2C(=O)[C@H]([C@@H](C)O)C2[C@@H]1C.[K+] (some centres undefined) | 3.25 h | 82 nM | 230 nM | > 50 µg/mL | 10 µg/mL | 5 µg/mL | 25 µg/mL | > 50 µg/mL | > 50 µg/mL | < 0.5 µg/mL | – | 5 µg/mL | > 50 µg/mL | 1 µg/mL | – |
| COC1=C(C(=O)[O-])N2C(=O)[C@H]([C@@H](C)O)[C@H]2C1.[K+] | 5.75 h | 510 nM | – | 50 µg/mL | 2 µg/mL | 1 µg/mL | 5 µg/mL | > 50 µg/mL | > 50 µg/mL | 1 µg/mL | 2 µg/mL | 5 µg/mL | 25 µg/mL | – | 0.00034 M l-1 |
